The source of these data is patent EP4678629A1, “IONIZABLE LIPID MOLECULE, PREPARATION METHOD THEREFOR AND USE THEREOF” (Maxirna (Shanghai) Pharmaceutical Co., Ltd., priority 2023, dated 2024).

Structures are written as SMILES.

For orientation: viability means a per cent measure of how many cells are alive, often set against a control.

Series [1] in a line: Encapsulation efficiency of the lipid nanoparticle (eGFP mRNA) by Ribogreen method. The format is physicochemical. The settings on record: LNP encapsulating eGFP mRNA, ionizable lipid/DOPE/cholesterol/DMG-PEG2000 50/10/48.25/1.25 mol%, N/P 12. Summed up: (§1)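 LNPs were made by microfluidic mixing of ionizable lipid/DOPE/cholesterol/DMG-PEG2000 (50/10/48.25/1.25 mol%) in ethanol with eGFP mRNA in 20 mM citrate pH 6.1, N/P 12, then ultrafiltered into DPBS and 0.2 µm filtered. Size and PDI by DLS at 173° backscatter; encapsulation by Ribogreen.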

Series [2] is described as follows: Size and polydispersity index (PDI) of the lipid nanoparticle by dynamic light scattering. The class given is physicochemical. The conditions noted are these: LNP encapsulating eGFP mRNA, ionizable lipid/DOPE/cholesterol/DMG-PEG2000 50/10/48.25/1.25 mol%, N/P 12; for Particle size: in nm (unit assumed). The essentials: as §1
The test system of series [3] is DC2.4 cells. Description: In vitro transfection of cells with eGFP-mRNA lipid nanoparticle (LNP preparation), fluorescence imaging and flow cytometry. The conditions noted are these: eGFP positivity rate, DC2.4 cells, 200 ng of mRNA per well, after 24 hours. The format is cell-based, mouse. The essentials:
(§2)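 Mouse bone marrow-derived DC2.4 dendritic cells seeded at 2 × 10^5 cells/well in DMEM with 10% FBS, transfected with eGFP-mRNA LNPs the next day at 37 °C, 5% CO2. After 24 hours, viability, eGFP-positive rate and mean fluorescence intensity read by fluorescence imaging and flow cytometry.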
For orientation: A flow cytometer gives signals particle by particle.

Assay in series [4]: as above
The class given is cell-based, mouse. The conditions noted are these: mouse, dc2.4 cells, 200 ng of mRNA per well, after 24 hours; read-out: Cell viability, %. Summed up:
as §2

For the molecule `CCCCCCCCCCCOC(=O)CCN(CCCCO)CCCN(CCC(=O)OCCCCCCCCCCC)CCC(=O)OCCCCCCCCCCC` [Example 69, Diundecyl 3,3'-((3-((4-hydroxybutyl)(3-oxo-3-(undecyloxy)propyl)amino)propyl)azanediyl)dipropionate], in series [1], the “Encapsulation rate, %” value was 85.47%. Besides, the PDI in series [2] was found to be 0.13. Besides, the “Positive rate, %” value in series [3] turned out to be 97.10%. The viability at 24 h in series [4] was 91.9%.
`CCCCCCCCCCCOC(=O)CCCN(CCO)CCCN(CCCC(=O)OCCCCCCCCCCC)C(=O)CCC(=O)OCCCCCCCCCCC` [Example 109]: the “Encapsulation rate, %” value in series [1] is on record as 79.70%. In addition, the PDI in series [2] was determined as 0.33. Besides, the “Positive rate, %” value in series [3] is 71.17%. The viability at 24 h in series [4] turned out to be 89%.
In the case of `CCCCCCCCCCCCCOC(=O)CCN(CCCCO)CCCN(CCC(=O)OCCCCCCCCCCCCC)CCC(=O)OCCCCCCCCCCCCC` [Example 72, Ditridecyl 3,3'-((3-((4-hydroxybutyl)(3-oxo-3-(tridecyloxy)propyl)amino)propyl)azanediyl)dipropionate], the “Encapsulation rate, %” value in series [1] is 99.70%. Besides, the Particle size in series [2] was 99.70. The “Positive rate, %” value in series [3] stood at 81.19%. Moreover, in series [4], the viability at 24 h was 84%.
Turning to `CCCCCCCCCCCOC(=O)CN(CCO)CCCN(CC(=O)OCCCCCCCCCCC)CC(=O)OCCCCCCCCCCC` [Example 73, Diundecyl 2,2'-((3-((2-hydroxyethyl)(2-oxo-2-(undecyloxy)ethyl)amino)propyl)azanediyl)diacetate], the “Encapsulation rate, %” value in series [1] is listed as 85.54%. Also, the Particle size in series [2] is on record as 85.54. Also, the “Positive rate, %” value in series [3] came to 97.94%. The viability at 24 h in series [4] amounted to 84.1%.
In the case of `CCCCCCCCCCCCOC(=O)CCCCCCN(CCO)CCCN(CCCCCCC(=O)OCCCCCCCCCCCC)CCCCCCC(=O)OCCCCCCCCCCCC` [Example 47, Didodecyl 7,7'-((3-((7-(dodecyloxy)-7-oxoheptyl)(2-hydroxyethyl)amino)propyl)azanediyl)diheptanoate], in series [1], the “Encapsulation rate, %” value was 99.77%. In series [2], this molecule came in with a PDI of 0.26 and a Particle size of 83.85. Moreover, the “Positive rate, %” value in series [3] was determined as 97.39%. In series [4], the viability at 24 h worked out at 88.5%.
As to `CCCCCCCCCCCCCOC(=O)CCCN(CCCO)CCCCCN(CCCC(=O)OCCCCCCCCCCCCC)CCCC(=O)OCCCCCCCCCCCCC` [Example 100, 4,4'-ditridecyl((5-((3-hydroxypropyl)(4-oxo-4-(tridecyloxy)butyl)amino)pentyl)azetidinyl)dibutanoate], the “Encapsulation rate, %” value in series [1] is reported as 92.32%. The same molecule registered a PDI in series [2] of 0.16. Besides, the “Positive rate, %” value in series [3] stood at 93.24%. The viability at 24 h in series [4] worked out at 99%.
Regarding `CC/C=C\CCCCCOC(=O)CCCCCCCN(CCO)CCCN(CCCCCCCC(=O)OCCCCC/C=C\CC)CCCCCCCC(=O)OCCCCC/C=C\CC` [Example 8, Di((Z)-non-6-en-1-yl)8,8'-((3-((2-hydroxyethyl)(8-(((Z)-non-6-en-1-yl)oxo)-8-oxooctyl)amino)propyl)azanediyl)dioctanoate], the “Encapsulation rate, %” value in series [1] was determined as 80.59%. Besides, the PDI in series [2] was determined as 0.21. In addition, the “Positive rate, %” value in series [3] was 82.12%. Moreover, the viability at 24 h in series [4] was determined as 63.2%.
With `CCCCCCCCCCCCOC(=O)CCCCCN(CCCO)CCCN(CCCCCC(=O)OCCCCCCCCCCCC)CCCCCC(=O)OCCCCCCCCCCCC` [Example 45, Didodecyl 6,6'-((3-((6-(dodecoxy)-6-oxohexyl)(3-hydroxypropyl)amino)propyl)azahexyl)dihexanoate], the “Encapsulation rate, %” value in series [1] stood at 99.60%. In series [2], this molecule came in with a PDI of 0.20 and a Particle size of 84.66. For the same molecule, the “Positive rate, %” value in series [3] is 95.29%. The viability at 24 h in series [4] stood at 95%.
As to `CCCCCCCCCCCOC(=O)CCCCCCCCCCCN(CCO)CCCN(CCCCCCCCCCCC(=O)OCCCCCCCCCCC)CCCCCCCCCCCC(=O)OCCCCCCCCCCC` [Example 23, Diundecyl 12,12'-((3-((2-hydroxyethyl)(12-oxo-12-(undecyloxy)dodecyl)amino)propyl)azanediyl)didodecanoate], the “Encapsulation rate, %” value in series [1] came out at 92.58%. Also, the PDI in series [2] is given as 0.26. In series [3], the “Positive rate, %” value stood at 92.1%. The viability at 24 h in series [4] amounted to 87.5%.
Turning to `CCCCCCCCCCCCCOC(=O)CCCCCN(CCCCO)CCCN(CCCCCC(=O)OCCCCCCCCCCCCC)CCCCCC(=O)OCCCCCCCCCCCCC` [Example 31, 6,6'-((3-((4-hydroxybutyl)(6-oxo-6-(tridecyloxy)hexyl)amino)propyl)azadiyl)ditridecyl dihexanoate], the “Encapsulation rate, %” value in series [1] turned out to be 99.36%. In series [2], the PDI turned out to be 0.15 and the Particle size was determined as 84.05. In addition, in series [3], the “Positive rate, %” value worked out at 97.43%. The viability at 24 h in series [4] was 94.4%.
In the case of `CCCCCCCCCCCCCCOC(=O)CCCCCCCN(CCO)CCCN(CCCCCCCC(=O)OCCCCCCCCCCCCCC)CCCCCCCC(=O)OCCCCCCCCCCCCCC` [Example 59, Ditetradecyl 8,8'-((3-((2-hydroxyethyl)(8-oxo-8-(tetradecyloxy)octyl)amino)propyl)azanediyl)dioctanoate], in series [1], the “Encapsulation rate, %” value amounted to 91.15%. Also, the PDI in series [2] is 0.08. Further, the “Positive rate, %” value in series [3] came out at 96.89%. For the same molecule, in series [4], the viability at 24 h came out at 55.6%.
With `CCCCCCCCCCCCCOC(=O)CCCCCN(CCO)CCCN(CCCCCC(=O)OCCCCCCCCCCCCC)CCCCCC(=O)OCCCCCCCCCCCCC` [Example 26, Ditridecyl 6,6'-((3-((2-hydroxyethyl)(6-oxo-6-(tridecyloxy)hexyl)amino)propyl)azanediyl)dihexanoate], in series [1], the “Encapsulation rate, %” value stood at 99.66%. Further, in series [2], the PDI is 0.09 and the Particle size is 95.80. In series [3], the “Positive rate, %” value worked out at 95.84%. In addition, the viability at 24 h in series [4] is 98.1%.
In the case of `CCCCC/C=C\C/C=C\CCCCCCCCOC(=O)CCCN(CCCO)CCCCN(CCCC(=O)OCCCCCCCC/C=C\C/C=C\CCCCC)CCCC(=O)OCCCCCCCC/C=C\C/C=C\CCCCC` [Example 104], in series [1], the “Encapsulation rate, %” value is 95.12%. For the same molecule, in series [2], the PDI is reported as 0.16. Further, in series [3], the “Positive rate, %” value is listed as 92.63%. The viability at 24 h in series [4] came out at 96.7%.
As to `CCCCCCCCCCCOC(=O)CCCCCCCN(CCCO)CCCN(CCCCCCCC(=O)OCCCCCCCCCCC)CCCCCCCC(=O)OCCCCCCCCCCC` [Example 18, Diundecyl 8,8'-((3-((3-hydroxypropyl)(8-oxo-8-(undecyloxy)octyl)amino)propyl)azanediyl)dioctanoate], the “Encapsulation rate, %” value in series [1] is recorded as 88.82%. In series [2], this molecule returned a PDI of 0.25. In addition, in series [3], the “Positive rate, %” value is 96.79%. Moreover, the viability at 24 h in series [4] is 90.6%.
On to `CCCCCCCCCCCCCCOC(=O)CCCCCCCN(CCCCO)CCCN(CCCCCCCC(=O)OCCCCCCCCCCCCCC)CCCCCCCC(=O)OCCCCCCCCCCCCCC` [Example 61, Ditetradecyl 8,8'-((3-((4-hydroxybutyl)(8-oxo-8-(tetradecyloxy)octyl)amino)propyl)azanediyl)dioctanoate], for which the “Encapsulation rate, %” value in series [1] stood at 97.38%. In series [2], this molecule yielded a PDI of 0.13 and a Particle size of 82.47. Besides, in series [3], the “Positive rate, %” value is given as 95.85%. For the same molecule, the viability at 24 h in series [4] amounted to 71.2%.
